Measured values: ChEMBL document CHEMBL1135305, “Enantiospecific, selective cyclooxygenase-2 inhibitors” (Bioorg Med Chem Lett, 2002)

Assays:
[1] = target: T1, Prostaglandin G/H synthase 2 (Homo sapiens, UniProt P35354); assay: Inhibitory concentration against human prostaglandin G/H synthase 2
T1 sequence (P35354 whole entry): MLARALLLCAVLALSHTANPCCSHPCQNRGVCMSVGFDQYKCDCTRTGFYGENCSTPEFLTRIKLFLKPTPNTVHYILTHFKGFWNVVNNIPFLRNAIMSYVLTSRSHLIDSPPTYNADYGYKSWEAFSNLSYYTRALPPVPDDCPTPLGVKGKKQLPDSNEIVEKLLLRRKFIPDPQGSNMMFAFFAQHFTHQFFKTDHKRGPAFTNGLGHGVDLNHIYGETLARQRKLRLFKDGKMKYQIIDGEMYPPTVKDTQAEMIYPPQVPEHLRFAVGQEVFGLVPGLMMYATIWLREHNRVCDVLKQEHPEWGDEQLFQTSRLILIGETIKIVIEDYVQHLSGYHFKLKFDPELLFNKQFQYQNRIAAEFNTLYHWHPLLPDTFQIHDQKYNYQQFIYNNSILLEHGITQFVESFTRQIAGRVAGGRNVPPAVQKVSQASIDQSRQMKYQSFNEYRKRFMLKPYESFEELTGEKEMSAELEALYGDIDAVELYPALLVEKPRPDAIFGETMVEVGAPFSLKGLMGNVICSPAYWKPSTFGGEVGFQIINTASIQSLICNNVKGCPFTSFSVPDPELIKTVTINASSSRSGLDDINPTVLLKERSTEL

[2] = target: T2, Prostaglandin G/H synthase 1 (Ovis aries, UniProt P05979)
T2 sequence (P05979 whole entry): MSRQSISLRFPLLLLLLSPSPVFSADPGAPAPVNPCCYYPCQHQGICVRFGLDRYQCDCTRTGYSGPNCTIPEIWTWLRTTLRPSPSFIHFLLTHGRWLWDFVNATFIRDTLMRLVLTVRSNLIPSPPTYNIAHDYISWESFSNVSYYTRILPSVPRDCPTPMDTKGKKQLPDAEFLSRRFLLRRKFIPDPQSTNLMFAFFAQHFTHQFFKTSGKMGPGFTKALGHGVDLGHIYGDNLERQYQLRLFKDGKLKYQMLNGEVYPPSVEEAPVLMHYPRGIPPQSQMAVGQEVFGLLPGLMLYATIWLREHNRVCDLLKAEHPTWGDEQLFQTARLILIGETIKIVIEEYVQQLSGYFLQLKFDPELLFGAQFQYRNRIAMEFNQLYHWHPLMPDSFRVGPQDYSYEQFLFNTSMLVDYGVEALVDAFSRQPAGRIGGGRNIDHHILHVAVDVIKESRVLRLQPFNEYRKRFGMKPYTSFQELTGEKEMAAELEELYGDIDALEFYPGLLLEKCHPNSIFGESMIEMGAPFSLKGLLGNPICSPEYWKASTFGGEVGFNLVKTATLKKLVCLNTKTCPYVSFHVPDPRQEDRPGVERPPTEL
Description: Inhibitory concentration against prostaglandin G/H synthase 1

[3] = target: Prostaglandin G/H synthase 2 (Mus musculus, UniProt Q05769, F343L); assay: Inhibitory concentration against F357L mutant murine Prostaglandin G/H synthase 2
Sequence of Prostaglandin G/H synthase 2 (Mus musculus, UniProt Q05769, F343L) (Q05769 18-604 F343L limits assumed): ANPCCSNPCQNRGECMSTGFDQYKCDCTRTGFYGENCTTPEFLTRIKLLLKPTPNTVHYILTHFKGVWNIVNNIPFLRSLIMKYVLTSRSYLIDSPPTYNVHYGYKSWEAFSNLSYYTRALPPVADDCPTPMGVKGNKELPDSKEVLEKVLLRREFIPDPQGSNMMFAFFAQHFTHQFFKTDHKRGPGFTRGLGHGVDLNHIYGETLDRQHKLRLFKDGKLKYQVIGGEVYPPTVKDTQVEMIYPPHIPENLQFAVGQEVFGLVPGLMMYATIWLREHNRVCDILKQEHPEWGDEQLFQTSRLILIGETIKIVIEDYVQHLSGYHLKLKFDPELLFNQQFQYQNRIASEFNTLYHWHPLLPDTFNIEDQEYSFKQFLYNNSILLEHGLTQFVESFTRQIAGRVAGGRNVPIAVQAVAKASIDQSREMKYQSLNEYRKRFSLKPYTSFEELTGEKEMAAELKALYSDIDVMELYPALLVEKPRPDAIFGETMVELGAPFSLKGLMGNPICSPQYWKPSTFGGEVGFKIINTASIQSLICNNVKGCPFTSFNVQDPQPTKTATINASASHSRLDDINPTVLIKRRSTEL

[4] = target: Prostaglandin G/H synthase 2 (Mus musculus, UniProt Q05769, H122N); assay: Inhibitory concentration against H122N mutant murine Prostaglandin G/H synthase 2
[5] = target: Prostaglandin G/H synthase 2 (Mus musculus, UniProt Q05769, I92L); assay: Inhibitory concentration against I92L mutant murine Prostaglandin G/H synthase 2
[6] = target: Prostaglandin G/H synthase 2 (Mus musculus, UniProt Q05769, L489F); assay: Inhibitory concentration against L503F mutant murine Prostaglandin G/H synthase 2
Sequence of Prostaglandin G/H synthase 2 (Mus musculus, UniProt Q05769, L489F) (Q05769 18-604 L489F limits assumed): as the sequence (Q05769 18-604 F343L limits assumed) above, with L326F, L472F counted along it

[7] = target: Prostaglandin G/H synthase 2 (Mus musculus, UniProt Q05769, R106A); assay: Inhibitory concentration against R120A mutant murine Prostaglandin G/H synthase 2
Sequence of Prostaglandin G/H synthase 2 (Mus musculus, UniProt Q05769, R106A) (Q05769 18-604 R106A limits assumed): as the sequence (Q05769 18-604 F343L limits assumed) above, with R89A, L326F counted along it

[8] = target: Prostaglandin G/H synthase 2 (Mus musculus, UniProt Q05769, R106Q); assay: Inhibitory concentration against R120Q mutant murine Prostaglandin G/H synthase 2
Sequence of Prostaglandin G/H synthase 2 (Mus musculus, UniProt Q05769, R106Q) (Q05769 18-604 R106Q limits assumed): as the sequence (Q05769 18-604 F343L limits assumed) above, with R89Q, L326F counted along it

[9] = target: Prostaglandin G/H synthase 2 (Mus musculus, UniProt Q05769, S105V); assay: Inhibitory concentration against S119V mutant murine Prostaglandin G/H synthase 2
Sequence of Prostaglandin G/H synthase 2 (Mus musculus, UniProt Q05769, S105V) (Q05769 18-604 S105V limits assumed): as the sequence (Q05769 18-604 F343L limits assumed) above, with S88V, L326F counted along it

[10] = target: Prostaglandin G/H synthase 2 (Mus musculus, UniProt Q05769, S516A); assay: Inhibitory concentration against S530A mutant murine Prostaglandin G/H synthase 2
Sequence of Prostaglandin G/H synthase 2 (Mus musculus, UniProt Q05769, S516A) (Q05769 18-604 S516A limits assumed): as the sequence (Q05769 18-604 F343L limits assumed) above, with L326F, S499A counted along it

[11] = target: T3, Prostaglandin G/H synthase 2 (Mus musculus, UniProt Q05769); assay: Inhibitory concentration against V5231, mutant murine Prostaglandin G/H synthase 2
[12] = target: T3, Prostaglandin G/H synthase 2; assay: Inhibitory concentration against VRV, mutant murine Prostaglandin G/H synthase 2
[13] = target: Prostaglandin G/H synthase 2 (Mus musculus, UniProt Q05769, Y101L); assay: Inhibitory concentration against Y115L mutant murine Prostaglandin G/H synthase 2
Sequence of Prostaglandin G/H synthase 2 (Mus musculus, UniProt Q05769, Y101L) (Q05769 18-604 Y101L limits assumed): as the sequence (Q05769 18-604 F343L limits assumed) above, with Y84L, L326F counted along it

[14] = target: Prostaglandin G/H synthase 2 (Mus musculus, UniProt Q05769, S105V/Y101L); assay: Inhibitory concentration against Y115L/S119V mutant murine Prostaglandin G/H synthase 2
Sequence of Prostaglandin G/H synthase 2 (Mus musculus, UniProt Q05769, S105V/Y101L) (Q05769 18-604 Y101L/S105V limits assumed): as the sequence (Q05769 18-604 F343L limits assumed) above, with Y84L, S88V, L326F counted along it

[15] = target: T4, Prostaglandin G/H synthase 2 (Mus musculus, UniProt Q05769); assay: Inhibitory concentration against wild type murine Prostaglandin G/H synthase 2
T4 sequence (Q05769 whole entry): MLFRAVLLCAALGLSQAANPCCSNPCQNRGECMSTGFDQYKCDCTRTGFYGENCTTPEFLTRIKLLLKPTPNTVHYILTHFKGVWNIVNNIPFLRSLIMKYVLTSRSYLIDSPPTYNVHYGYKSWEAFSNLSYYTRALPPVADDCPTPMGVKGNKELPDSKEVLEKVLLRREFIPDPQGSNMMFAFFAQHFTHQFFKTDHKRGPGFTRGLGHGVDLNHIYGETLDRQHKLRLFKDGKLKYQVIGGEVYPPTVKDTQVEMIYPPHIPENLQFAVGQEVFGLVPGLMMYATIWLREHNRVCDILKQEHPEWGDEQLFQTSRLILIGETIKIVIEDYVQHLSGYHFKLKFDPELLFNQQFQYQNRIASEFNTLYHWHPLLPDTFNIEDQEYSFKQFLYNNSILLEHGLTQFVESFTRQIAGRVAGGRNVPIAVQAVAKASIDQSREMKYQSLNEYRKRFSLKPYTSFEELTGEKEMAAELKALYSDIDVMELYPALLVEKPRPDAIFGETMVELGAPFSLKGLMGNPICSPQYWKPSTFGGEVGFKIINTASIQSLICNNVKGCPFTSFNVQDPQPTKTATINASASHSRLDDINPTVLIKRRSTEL

[16] = target: T3, Prostaglandin G/H synthase 2; assay: Inhibitory concentration against V891 mutant murine Prostaglandin G/H synthase 2
[17] = target: Prostaglandin G/H synthase 2 (Mus musculus, UniProt Q05769, E510L); assay: Inhibitory concentration against E524L mutant murine Prostaglandin G/H synthase 2
Sequence of Prostaglandin G/H synthase 2 (Mus musculus, UniProt Q05769, E510L) (Q05769 18-604 E510L limits assumed): as the sequence (Q05769 18-604 F343L limits assumed) above, with L326F, E493L counted along it

[18] = target: T3, Prostaglandin G/H synthase 2; assay: Inhibitory concentration against l503F mutant murine Prostaglandin G/H synthase 2

SMILES | IC50 [1] | IC50 [2] | other results
COc1ccc2c(c1)c(CC(=O)NN1CCC[C@@H]1CO)c(C)n2C(=O)c1ccc(Cl)cc1 | 1700 nM | > 80000 nM | 
COc1ccc2c(c1)c(CC(=O)NC[C@@H](O)c1ccccc1)c(C)n2C(=O)c1ccc(Cl)cc1 | 47 nM | 56000 nM | 
CCC(C)[C@@H](CO)NC(=O)Cc1c(C)n(C(=O)c2ccc(Cl)cc2)c2ccc(OC)cc12 (stereo not given in full) | 110 nM | 480 nM | 
COc1ccc2c(c1)c(CC(=O)NC[C@@H](C)O)c(C)n2C(=O)c1ccc(Cl)cc1 | 330 nM | 52000 nM | 
COc1ccc2c(c1)c(CC(=O)NC[C@H](C)O)c(C)n2C(=O)c1ccc(Cl)cc1 | 320 nM | 32000 nM | 
COc1ccc2c(c1)c(CC(=O)NCCCO)c(C)n2C(=O)c1ccc(Cl)cc1 | 220 nM | 64000 nM | 
COc1ccc2c(c1)c(CC(=O)N[C@H](CO)Cc1ccccc1)c(C)n2C(=O)c1ccc(Cl)cc1 | 85 nM | < 3900 nM | 
COc1ccc2c(c1)c(CC(=O)N[C@H](CO)c1ccccc1)c(C)n2C(=O)c1ccc(Cl)cc1 | 85 nM | < 1300 nM | 
COc1ccc2c(c1)c(CC(=O)NN1CCC[C@H]1CO)c(C)n2C(=O)c1ccc(Cl)cc1 | 1800 nM | > 80000 nM | 
CC[C@H](CO)NC(=O)Cc1c(C)n(C(=O)c2ccc(Cl)cc2)c2ccc(OC)cc12 | 100 nM | 59000 nM | 
COc1ccc2c(c1)c(CC(=O)N[C@H](CO)CCSC)c(C)n2C(=O)c1ccc(Cl)cc1 | 1000 nM | 2300 nM | 
COc1ccc2c(c1)c(CC(=O)N[C@H](CO)C(C)C)c(C)n2C(=O)c1ccc(Cl)cc1 | 370 nM | 400 nM | 
COC[C@H](C)NC(=O)Cc1c(C)n(C(=O)c2ccc(Cl)cc2)c2ccc(OC)cc12 | 240 nM | > 60000 nM | 
COc1ccc2c(c1)c(CC(=O)NC[C@H](O)c1ccccc1)c(C)n2C(=O)c1ccc(Cl)cc1 | 210 nM | > 63000 nM | 
COc1ccc2c(c1)c(CC(=O)N[C@H](CO)CC(C)C)c(C)n2C(=O)c1ccc(Cl)cc1 | 170 nM | < 3900 nM | 
COc1ccc2c(c1)c(CC(=O)N[C@@H](CO)C(C)C)c(C)n2C(=O)c1ccc(Cl)cc1 | 110 nM | > 63000 nM | 
COc1ccc2c(c1)c(CC(=O)N[C@@H](CO)Cc1ccccc1)c(C)n2C(=O)c1ccc(Cl)cc1 | 220 nM | > 50000 nM | 
COc1ccc2c(c1)c(CC(=O)NCCCCCCO)c(C)n2C(=O)c1ccc(Cl)cc1 | 210 nM | > 63000 nM | 
COc1ccc2c(c1)c(CC(=O)N[C@H](C)CO)c(C)n2C(=O)c1ccc(Cl)cc1 | 170 nM | 33000 nM | IC50 [3]: 250 nM; IC50 [4]: 690 nM; IC50 [5]: 200 nM; IC50 [6]: 300 nM; IC50 [7]: 50 nM; IC50 [8]: 90 nM; IC50 [9]: 240 nM; IC50 [10]: 570 nM; IC50 [11]: 690 nM; IC50 [12]: 340 nM; IC50 [13]: 325 nM; IC50 [14]: 290 nM; IC50 [15]: 540 nM; IC50 [16]: 250 nM; IC50 [17]: 560 nM
CC[C@@H](C)NC(=O)Cc1c(C)n(C(=O)c2ccc(Cl)cc2)c2ccc(OC)cc12 | 130 nM | 180 nM | 
COc1ccc2c(c1)c(CC(=O)NCCCCO)c(C)n2C(=O)c1ccc(Cl)cc1 | 280 nM | 86000 nM | 
COc1ccc2c(c1)c(CC(=O)NCCCCCO)c(C)n2C(=O)c1ccc(Cl)cc1 | 290 nM | > 83000 nM | 
COc1ccc2c(c1)c(CC(=O)N[C@@H](CO)c1ccccc1)c(C)n2C(=O)c1ccc(Cl)cc1 | 440 nM | 47000 nM | 
COC[C@@H](C)NC(=O)Cc1c(C)n(C(=O)c2ccc(Cl)cc2)c2ccc(OC)cc12 | 140 nM | 6800 nM | 
COc1ccc2c(c1)c(CC(=O)N[C@@H](C)CO)c(C)n2C(=O)c1ccc(Cl)cc1 | 270 nM | 590 nM | IC50 [3]: 250 nM; IC50 [4]: 300 nM; IC50 [5]: 200 nM; IC50 [7]: 60 nM; IC50 [8]: 75 nM; IC50 [9]: 200 nM; IC50 [10]: 150 nM; IC50 [11]: 220 nM; IC50 [12]: 110 nM; IC50 [13]: 390 nM; IC50 [14]: 210 nM; IC50 [18]: 160 nM; IC50 [15]: 170 nM; IC50 [16]: 85 nM; IC50 [17]: 220 nM
CC[C@@H](CO)NC(=O)Cc1c(C)n(C(=O)c2ccc(Cl)cc2)c2ccc(OC)cc12 | 280 nM | 350 nM | 
COc1ccc2c(c1)c(CC(=O)N[C@@H](CO)CC(C)C)c(C)n2C(=O)c1ccc(Cl)cc1 | 500 nM | > 63000 nM | 
COc1ccc2c(c1)c(CC(=O)NC(C)(C)CO)c(C)n2C(=O)c1ccc(Cl)cc1 | 190 nM | 800 nM | 
COc1ccc2c(c1)c(CC(=O)N[C@@H](CO)CCSC)c(C)n2C(=O)c1ccc(Cl)cc1 | 250 nM | 51000 nM | 
CC[C@H](C)NC(=O)Cc1c(C)n(C(=O)c2ccc(Cl)cc2)c2ccc(OC)cc12 | 110 nM | 4700 nM | 
